Measured values taken from paper PMC4743925, “Targeting an Essential GTPase Obg for the Development of Broad-Spectrum Antibiotics” (PLoS ONE, 2016).

How the values were obtained:
ObgGC = target: T1, ObgGC (Neisseria gonorrhoeae, UniProt Q5F5D9); assay: mant-nucleotide fluorescence increase; format: binding; conditions: 2 μM protein, labelled compound
T1 construct: gene obg; full-length with C-terminal 6xHis tag, expressed in E. coli BL21(DE3), IMAC and size exclusion; tag not reported cut

ObgKP = target: T2, ObgKP (Klebsiella pneumoniae, UniProt A6TEK2); assay: mant-nucleotide fluorescence increase; format: binding; conditions: 2 μM protein, labelled compound
T2 construct: gene obg; residues 1-392, N-terminal 6xHis tag and TEV site (modified pCDF-Duet1, pKV1414), expressed in E. coli BL21(DE3); tag not reported cut

[1] = 0.3 μM mant-GTP, 5 mM MgCl2, 37 °C

T2 sequence (A6TEK2 whole entry, the tested form may be a part): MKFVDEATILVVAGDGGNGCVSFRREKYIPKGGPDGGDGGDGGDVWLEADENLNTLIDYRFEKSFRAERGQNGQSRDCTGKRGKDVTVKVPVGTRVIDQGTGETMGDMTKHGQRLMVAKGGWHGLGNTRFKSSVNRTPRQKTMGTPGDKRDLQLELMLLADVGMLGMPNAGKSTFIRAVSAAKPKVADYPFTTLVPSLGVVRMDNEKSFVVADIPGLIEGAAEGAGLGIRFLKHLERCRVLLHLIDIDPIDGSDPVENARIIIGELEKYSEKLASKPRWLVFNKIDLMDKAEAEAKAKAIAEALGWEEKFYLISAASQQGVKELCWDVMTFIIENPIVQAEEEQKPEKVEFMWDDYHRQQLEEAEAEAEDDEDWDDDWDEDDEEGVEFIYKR
T1 sequence (Q5F5D9 whole entry): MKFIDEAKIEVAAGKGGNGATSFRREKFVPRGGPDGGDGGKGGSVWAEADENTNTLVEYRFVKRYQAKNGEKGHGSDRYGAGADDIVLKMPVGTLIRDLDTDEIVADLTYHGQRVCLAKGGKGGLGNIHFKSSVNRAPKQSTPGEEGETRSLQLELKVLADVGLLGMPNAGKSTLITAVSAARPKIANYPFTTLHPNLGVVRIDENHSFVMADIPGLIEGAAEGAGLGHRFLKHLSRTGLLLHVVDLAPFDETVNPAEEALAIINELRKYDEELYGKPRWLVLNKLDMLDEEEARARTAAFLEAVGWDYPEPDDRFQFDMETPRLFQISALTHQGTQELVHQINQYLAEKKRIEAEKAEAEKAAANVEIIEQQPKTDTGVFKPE

SMILES	increase in RFU (ObgGC; 0.3 μM mant-GDP, no MgCl2, 37 °C)	fold increase in RFU (ObgKP; 0.3 μM mant-GDP, 37 °C)	increase in RFU (ObgGC; [1])	fold increase in RFU (ObgKP; [1])
CNc1ccccc1C(=O)O[C@H]1[C@@H](O)[C@H](n2cnc3c(=O)[nH]c(N)nc32)O[C@@H]1COP(=O)(O)OP(=O)(O)O [mant-GDP]	Assessment of mant-nucleotides binding by wild type (ObgGC) and mutated (*ObgGC)	~ 1.3 fold		
CNc1ccccc1C(=O)O[C@H]1[C@@H](O)[C@H](n2cnc3c(=O)[nH]c(N)nc32)O[C@@H]1COP(=O)(O)OP(=O)(O)OP(=O)(O)O [mant-GTP]			Assessment of mant-nucleotides binding by wild type (ObgGC) and mutated (*ObgGC)	~ 1.8 fold
